Patent US20110117212A1, “THERAPEUTIC COMBINATION COMPRISING AN AURORA KINASE INHIBITOR AND AN ANTINEOPLASTIC AGENT” (priority 2008, published 2011)

Columns and labels:
[1] = tested on: DU145 prostate carcinoma; details: DU145 s.c. in athymic mice; delay to reach 1 g tumor; Compound 1 30 mg/kg ip BID days 10-18; docetaxel 7.5 mg/kg iv days 10, 14, 18; combination: docetaxel days 10, 14, 18, Compound 1 days 11, 12, 13, 15, 16, 17, 19, 20, 21
Description: Balb, Nu\Nu male mice, from Harlan (Italy), were maintained in cages with paper filter cover, food and bedding sterilized and water acidified. 2.5×10^6 DU145 prostate carcinoma cells (from the American Type Culture Collection) were injected subcutaneously in athymic mice.
The treatment started 10 days later tumor cells injection when tumors were palpable. Docetaxel was prepared immediately before treatment, compound 1 of formula (A) was prepared daily, on the basis of known stability of the compound.
Compound 1 was administered by intraperitoneal route in a volume of 10 ml/kg at the doses of 30 mg/kg twice a day (BID) for 9 days (days 10 to 18). Docetaxel was administered by intravenous route in a volume of 10 ml/kg at the dose of 7.5 mg/kg on days 10, 14, 18 from the days of cell injection. When combined, compound 1 was administered in the interval between the docetaxel treatments at days 11, 12, 13, 15, 16, 17, 19, 20 and 21. Tumor growth and body weight were measured every 3 days. Tumor growth was assessed by caliper. The two diameters were recorded and the tumor weight was calculated according the following formula:
length (mm)×width^2/2. The effect of the antitumor treatment was evaluated as the delay in the onset of an exponential growth of the tumor (see for references, Anticancer drugs 7:437-60, 1996). […] Toxicity was evaluated on the basis of body weigh reduction.

[2] = tested on: A2780 human ovarian carcinoma; experiment: In vivo antitumor efficacy in combination with cisplatin; details: A2780 s.c. in athymic mice; Compound 1 15 mg/kg ip BID days 13-17; cisplatin 8 mg/kg iv day 17; combination: same doses and days
Description: (§1) A2780 human ovarian carcinoma cells were obtained from American Type Culture Collection (Rockville, Md.) and were maintained in vitro as continuous cultures in RPMI medium supplemented with 10% FBS, at 37° C., 5% CO2. For in vivo experiments 8×10^6 A2780 cells were implanted subcutaneously in athymic mice.
(§2) The treatment started when tumors were palpable (day 13). Both compounds were prepared immediately before treatment.
(§3) Tumor growth was assessed by caliper. […] Animals were sacrificed on day 37 after tumor implant, day 24 from the start of treatments and tumors were weighted. The effect of the antitumor treatment was evaluated as percentage of tumor growth inhibition of the treated group respect to control.

[3] = tested on: BX-PC3 human pancreatic carcinoma; experiment: In vivo antitumor efficacy in combination with gemcitabine; details: BX-PC3 s.c. in athymic mice; compound 1 15 mg/kg ip BID days 9-17; gemcitabine 80 mg/kg iv days 9, 13, 17; combination: gemcitabine days 9, 13, 17, compound 1 days 10, 11, 12, 14, 15, 16, 18, 19, 20
Description: Fragments of BX-PC3 human pancreatic carcinoma were implanted subcutaneously in athymic mice. […] The treatment with gemcitabine started at day 9 after tumor implantation, when tumors were palpable. Compounds were prepared immediately before treatments.
When combined, gemcitabine was administered at days 9, 13, 17 and compound 1 was administered for the following 3 days after gemcitabine administration. […] Tumor growth was assessed by caliper. […] The effect of the antitumor treatment was evaluated as percentage of tumor growth inhibition (TGI %). Toxicity was evaluated on the basis of body weight reduction.

[4] = tested on: A2780 human ovarian carcinoma; experiment: In vivo antitumor efficacy of the combination with irinotecan; details: for TGI %: A2780 s.c. in athymic mice, Compound 1 30 mg/kg ip BID days 13-17, irinotecan 60 mg/kg iv day 13, combination: irinotecan 50 mg/kg day 13 + Compound 1 30 mg/kg days 13-17
Description: as §1, with “A2780” for “A2780 cells”, “mice. This tumor model was selected because it was sensitive to platinum derivatives and also on the basis of use of this drugs in ovarian cancer.” for “mice.”
as §2
as §3, with “When combined, compound 1 was administered from day 1 to day 5, irinotecan at day 1. […] Tumor” for “Tumor”

Structure (SMILES)	T-C [1] [days]	TGI % [2] [%]	TGI % [3] [%]	TGI % [4] [%]	Toxicity ([4]; evaluated on the basis of body weight reduction, A2780 mice, Compound 1 30 mg/kg ip BID, irinotecan iv, alone or combined)
CO[C@@H](C(=O)N1Cc2[nH]nc(NC(=O)c3ccc(N4CCN(C)CC4)cc3)c2C1)c1ccccc1 [Compound 1, N-{5-[(2R)-2-methoxy-2-phenylethanoyl]-1,4,5,6-tetrahydropyrrolo[3,4-c]pyrazol-3-yl}-4-(4-methylpiperazin-1-yl)benzamide]	5.3	46	53	72.3	–
N.N.[Cl][Pt][Cl] [Cisplatin, cisplatin]	–	21	–	–	–
Nc1ccn([C@@H]2O[C@H](CO)[C@@H](O)C2(F)F)c(=O)n1 [gemcitabine]	–	–	61	–	–
CCc1c2c(nc3ccc(OC(=O)N4CCC(N5CCCCC5)CC4)cc13)-c1cc3c(c(=O)n1C2)COC(=O)[C@]3(O)CC [irinotecan]	–	–	–	62	0/7
CC(=O)O[C@@]12CO[C@@H]1C[C@H](O)[C@@]1(C)C(=O)[C@H](O)C3=C(C)[C@@H](OC(=O)[C@H](O)[C@@H](NC(=O)OC(C)(C)C)c4ccccc4)C[C@@](O)([C@@H](OC(=O)c4ccccc4)[C@H]21)C3(C)C [docetaxel]	3.7	–	–	–	–
